The text below walks through data of patent publication US10358464B2, “Specific binding sites in collagen for integrins and use thereof” (The Texas A&M University System, priority 2005, dated 2019).

Non-standard residues stand in square brackets, D forms with d. Residues, ends and D or L forms follow the SMILES beside them. Hyp = O=C(O)[C@@H]1C[C@@H](O)CN1

Data set [1] in a line: CD temperature-dependent denaturation of triple helix. The data set is classed as physicochemical. Particulars: CD ellipticity at 225 nm, 20° C./hr, Boltzmann sigmoidal fit. The method, then: Circular Dichroism (CD) Spectroscopy. Synthetic collagen peptides were analyzed by CD spectroscopy, as described previously (18) with the following modifications. Briefly, peptides were dissolved in HBS to a concentration of 50 μM. CD spectra were collected on a Jasco J720 spectropolarimeter (Tokyo, Japan) from 190 to 240 nm, with bandwidth of 1 nm and integrated for 1 s at 0.2 nm intervals. Samples were measured at room temperature using cuvettes with 0.02 cm path length. For temperature-dependent denaturation analysis, […] of peptides were added to a thermostatically controlled cuvette with a 0.5 cm path length. Thermal transition profiles were recorded at 225 nm as described above with a temperature slope of 20° C./hr. To calculate the temperature melting points, the thermal transition profiles were fitted with Boltzmann sigmoidal model using the GraphPad Prism™ software (GraphPad Software Inc., San Diego, Calif.).

The next data set concerns MRC-5 cells. Briefly: Cell attachment assay on coated substrates. The data set is classed as cell-based, human. The note with it: room temperature. The method, then:
Reagents and Cell Culture. The human recombinant mature type III collagen used for cell attachment assays was purchased from FibroGen. All cell culture media components were purchased from Invitrogen. The human lung fibroblast cell line MRC-5 was purchased from American Type Culture Collection (ATCC) (Manassas, Va.). The cells were cultured and passaged in Dulbecco's modified Eagle's medium (DMEM) supplemented with 10% fetal bovine serum, 100 unit/ml penicillin and 100 μg/ml streptomycin. The cells were grown to subconfluence and passaged every 2-3 days.
Cell attachment assay. MRC-5 cells were starved overnight in serum deficient DMEM containing penicillin and streptomycin, then detached using 1 mM EDTA and 0.025% trypsin at 37° C. for 2 minutes. The cells were washed with PBS and resuspended in DMEM containing 0.2% BSA supplemented with 2 mM MgCl2. 100 μl of the cell suspension (˜1.5×10^5 cells/ml) were added to the microtiter wells coated with different concentrations of collagen or collagen peptides and blocked with PBS containing 0.5% (w/v) BSA. After incubation at room temperature for 45 min, the wells were washed with PBS. Attached cells were fixed with 3% p-formaldehyde for 10 min at room temperature. Following washing with cold Tris-buffered saline (TBS), pH 7.4, cells were fixed again in 20% methanol for 10 min and stained with 0.5% crystal violet for 5 min. The wells were thoroughly washed with distilled water and air-dried. Sodium citrate (0.1 M) was then added to the wells to dissolve the dye and the absorbance at 590 nm was measured. The maximum cell attachment on type III collagen was set to 100% and, residual attachment on BSA was set to 0%.
Adhesion of MRC-5 cells to peptide#1 (SEQ ID NO: 15) substrates. […] Wells in 96-well plates were coated with increasing concentrations of type III collagen, peptide #1 (SEQ ID NO: 15) or #2 (SEQ ID NO: 16) and 1.5×10^4 MRC-5 cells were added to each well. The plate was incubated for 45 min at room temperature and adhering cells were quantified as described herein.

The target in data set [2] is T1, α2I binding to type III collagen (Homo sapiens, UniProt P17301).
T1 construct: recombinant I domains from integrins α1 and α2 (α1I and α2I); made in house
Briefly: Competition ELISA, inhibition of I domain binding to type III collagen. The note with it: 100 μM peptide, 5 μM α2I, type III procollagen-coated wells. (In general: An ELISA detects its analyte on a solid surface through an enzyme-linked reagent.)

The target of another data set is α2I (Homo sapiens, UniProt P17301). Briefly: SPR, I domain binding to immobilized synthetic collagen peptide. A general note: Surface plasmon resonance follows binding to a sensor surface in real time, without labels.
For another data set, the target named is α1I (Homo sapiens, UniProt P56199). The data set is described as above.
Data set [3] concerns the target T2, α1I binding to type III collagen (Homo sapiens, UniProt P56199).
T2 construct: recombinant I domains from integrins α1 and α2 (α1I and α2I); made in house
Briefly: Competition ELISA, inhibition of I domain binding to type III collagen. Particulars: 100 μM peptide, 0.5 μM α1I, type III procollagen-coated wells.

Where [4] appears, read: 30 nM I domain, 2 mM EDTA versus 1 mM MgCl2.

Usually inhibition stands for the percentage by which the read-out fell short of the control. A lower inhibition goes with a weak effect. The term Kd denotes the concentration at which binding is half-saturated. High values mean weaker binding, low ones tighter binding. By koff is commonly meant the rate constant with which the complex falls apart. Read a high koff as a short-lived complex. For orientation: kon means the second-order rate constant of association. The low end stands for slower complex formation, the high end for faster complex formation.

Sequence of α2I (P17301 188-365 limits assumed): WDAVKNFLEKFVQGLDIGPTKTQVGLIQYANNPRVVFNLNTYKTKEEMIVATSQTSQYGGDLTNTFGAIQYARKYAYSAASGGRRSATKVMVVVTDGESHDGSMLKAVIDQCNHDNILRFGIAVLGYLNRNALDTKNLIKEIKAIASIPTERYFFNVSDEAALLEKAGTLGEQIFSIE
Sequence of α1I (P56199 161-360 limits assumed): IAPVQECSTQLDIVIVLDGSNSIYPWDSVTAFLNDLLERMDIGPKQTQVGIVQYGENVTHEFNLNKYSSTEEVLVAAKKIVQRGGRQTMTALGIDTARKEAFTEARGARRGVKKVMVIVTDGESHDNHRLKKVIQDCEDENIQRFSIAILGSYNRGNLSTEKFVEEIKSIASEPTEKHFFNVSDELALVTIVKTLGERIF
T1 sequence (P17301 188-365 limits assumed): as the sequence (P17301 188-365 limits assumed) above
T2 sequence (P56199 161-360 limits assumed): as the sequence (P56199 161-360 limits assumed) above

Take `CC(C)C[C@H](NC(=O)CNC(=O)[C@H](CCCNC(=N)N)NC(=O)[C@H](CCC(=O)O)NC(=O)CNC(=O)[C@@H]1C[C@@H](O)CN1C(=O)[C@H](CCCNC(=N)N)NC(=O)CNC(=O)[C@@H]1C[C@@H](O)CN1C(=O)[C@H](CCCNC(=N)N)NC(=O)CNC(=O)[C@@H]1C[C@@H](O)CN1C(=O)[C@@H]1CCCN1C(=O)CNC(=O)[C@@H]1C[C@@H](O)CN1C(=O)[C@@H]1CCCN1C(=O)CNC(=O)[C@@H]1C[C@@H](O)CN1C(=O)[C@@H]1CCCN1C(=O)CN)C(=O)N1C[C@H](O)C[C@H]1C(=O)NCC(=O)N1CCC[C@H]1C(=O)N1C[C@H](O)C[C@H]1C(=O)NCC(=O)N1CCC[C@H]1C(=O)N1C[C@H](O)C[C@H]1C(=O)NCC(=O)N1CCC[C@H]1C(=O)N1C[C@H](O)C[C@H]1C(N)=O` [peptide #1, (GPO)3GROGROGERGLO(GPO)3] (H-GP[Hyp]GP[Hyp]GP[Hyp]GR[Hyp]GR[Hyp]GERGL[Hyp]GP[Hyp]GP[Hyp]GP[Hyp]-NH2; N-terminus and C-terminus assumed): the “melting temperature (Tm) of triple helix” value in data set [1] is 43 °C. In addition, the “adhesion of MRC-5 cells to coated substrate” value with MRC-5 cells (increasing coating concentrations, 1.5×10^4 cells per well, 45 min) is on record as “could support adhesion of MRC-5 cells in a dose-dependent manner”. The “cell spreading on coated substrate” value in the data set on MRC-5 cells (1.5 hrs (data not shown)) is given as “Considerable cell spreading”. For the same compound, the inhibition at 100 µM in data set [2] was determined as 80%; in data set [3] it was 100%. Besides, the figures for the Kd on α2I and at α1I were 283 nM and 23 nM, respectively. For the same compound, the koff on α2I was found to be 0.012 s⁻¹; at α1I, 0.0013 s⁻¹. The kon at α2I stood at 44000 M⁻¹ s⁻¹; at α1I it was 56000 M⁻¹ s⁻¹. Moreover, the “binding in the presence of EDTA” value on α2I (setting [4]) and on α1I (setting [4]) was “completely abolished binding” each time. Besides, the “dissociate rate” value on α2I (15° C., 1:1 binding model) stood at 12 s^−1×10^3; on α1I (15° C., 1:1 binding model), 1.3 s^−1×10^3.
